We go through two compounds from patent US9095604B2, “Composition for preventing inflammations” (Meiji Co, Ltd., priority 2010, dated 2015).

The test system of data set [1] is ulcerative colitis induced by dextran sodium sulfate (DSS). To be noted: cited from earlier work.
Data set [2] relates to PGE2 secretion by Caco2 cells. Put plainly: Prostaglandin E2 (PGE2) ELISA of Caco2 culture supernatant. Type of data set: cell-based. The settings on record: human Caco2 cells, αNF preincubation. In general terms: ELISA stands for enzyme-linked immunosorbent assay.
The subject of data set [3] is aryl hydrocarbon receptor (AhR). Put plainly: SEAP reporter assay in HeXS34 cells (pXRE-SEAP) for AhR-activating potency. To be noted: 10 μM αNF preincubated 30 minutes, then 10% v/v OLL1181 for 24 hours. It counts as cell-based, mouse. As to the method:
The HeXS34 cells prepared in (1) maintained in MEMα medium (Invitrogen, Carlsbad, Calif.) supplemented with 10% fetal bovine serum (FBS) were sown on a 96 well plate at 5000 cells/90 μL per well, and cultured for 24 hours in the presence of and in the absence of 10 μL (5×10^9 cells/mL) of a freeze-dried heat-sterilized lactic acid bacterium strain. […] Culture supernatants were subsequently subjected to an SEAP assay. The culture supernatant obtained in (2) was subjected to quantitative determination of SEAP by a chemiluminescence method using a Great EscAPe SEAP Chemiluminescence kit (Clontech). The assay was carried out three times, and the average value was determined using the luminescence intensity (LU) so obtained as the SEAP activity. […] In the same way as for Example 1, stimulation was carried out for 24 hours using heat-sterilized suspensions of the two types of lactic acid bacterium strains (5×10^9 cells/mL solution was added at 5% v/v and 10% v/v), and the culture supernatant was subjected to SEAP assay. […] (3).

For data set [4], the system named is CYP1A1 expression in Caco2 cells. Nature of the data set: CYP1A1 expression in Caco2 cells by quantitative real-time PCR. It counts as cell-based, human. The settings on record: 5 μM αNF preincubated 30 minutes. Background: In qPCR the cycle at which signal appears reflects the starting amount.
Method: Human Caco2 cells were cultured in DMEM medium (Invitrogen/Gibco, Carlsbad, Calif.) supplemented with 10% FBS and an antibiotic, a portion was preincubated with 5 μM αNF for 30 minutes, and both that which had been preincubated and that which had not been preincubated were subjected to stimulation with a 10% v/v heat-sterilized OLL1181 strain suspension for 4 hours.
The Caco2 cells obtained in (1) were subjected to quantitative real-time PCR. The quantitative real-time PCR was carried out using an ABI 7300 real-time PCR system (Applied Biosystems, Foster City, Calif.) in accordance with an instruction manual. With regard to a primer and a probe, those for human CYP1A1 (Assay ID: Hs02382618_s1) and those for glyceraldehyde-3-phosphate dehydrogenase (GAPDH) (Assay ID: Hs99999905_m1) (Applied Biosystems) were used. The level of CYP1A1 gene expression relative to the level of GAPDH gene expression was calculated and defined as the relative level of CYP1A1 gene expression.
Setting [5] is: DSS-treated mouse, compared with no TCDD.

For `Clc1cc2c(cc1Cl)Oc1cc(Cl)c(Cl)cc1O2` [TCDD, 2,3,7,8-tetrachlorodibenzo-p-dioxin], in data set [1] (setting [5]), the Inflammation score entry is reported as “significantly suppressed”, the “Production of inflammatory cytokines” value is on record as “significantly suppressed”, the “Shortening of the intestinal tract” value is “significantly suppressed” and the Weight loss result is recorded as “significantly suppressed”. Moreover, the “Inflammatory response of ulcerative colitis induced by DSS” value in data set [1] (mouse, in vivo) was “suppresses”.
For `O=c1cc(-c2ccccc2)oc2c1ccc1ccccc12` [αNF, α-naphthoflavone], the “Effect on PGE2 production by stimulation with the OLL1181 strain” value in data set [2] was “inhibited”. Moreover, the “Effect on the increase in SEAP activity caused by stimulation with the OLL1181 strain” value in data set [3] is reported as “significantly inhibited”. For the same compound, in data set [4], the “Effect on the OLL1181-induced increase of CYP1A1 expression” value is on record as “significantly suppressed”.
